Source: ChEMBL document CHEMBL1133853, “Cyclopenta[g]quinazoline-based antifolates: the effect of the chirality at the 6-position on the inhibition of thymidylate synthase (TS)” (Bioorg Med Chem Lett, 2001)

Molecular target: Thymidylate synthase (Mus musculus, UniProt P07607)
Experiment: Tested for inhibitory activity against thymidylate synthase of L1210 cells
Type: cell-based
Conditions: read-out: Ki app

Thymidylate synthase, sequence (P07607 whole entry): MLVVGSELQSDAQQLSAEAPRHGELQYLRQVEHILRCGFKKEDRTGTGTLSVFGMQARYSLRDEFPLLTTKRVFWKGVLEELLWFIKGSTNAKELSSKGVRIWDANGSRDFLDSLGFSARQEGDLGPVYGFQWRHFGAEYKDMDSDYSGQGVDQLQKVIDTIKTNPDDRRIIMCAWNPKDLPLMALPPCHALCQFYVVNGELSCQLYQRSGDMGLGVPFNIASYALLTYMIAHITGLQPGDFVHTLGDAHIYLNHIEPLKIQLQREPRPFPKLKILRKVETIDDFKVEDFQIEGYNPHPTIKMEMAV

SMILES	Ki [nM]
C#CCN(c1ccc(C(=O)N[C@@H](CCC(=O)NC(CCC(=O)O)c2nnn[nH]2)C(=O)O)cc1)C1CCc2cc3nc(C)nc(O)c3cc21 (stereo partly specified)	0.2
C#CCN(c1ccc(C(=O)N[C@@H](CCC(=O)N[C@H](CCC(=O)O)C(=O)O)C(=O)O)cc1)[C@@H]1CCc2cc3nc(C)[nH]c(=O)c3cc21	3.5
C#CCN(c1ccc(C(=O)N[C@@H](CCC(=O)NC(CCC(=O)O)C(=O)O)C(=O)O)cc1)C1CCc2cc3nc(C)nc(O)c3cc21 (stereo partly specified)	0.42

Results, then the compound that gave them:

Ki [nM]	SMILES
0.71	C#CCN(c1ccc(C(=O)N[C@@H](CCCS(=O)(=O)c2nc[nH]n2)C(=O)O)cc1)[C@H]1CCc2cc3nc(C)nc(O)c3cc21
1200	C#CCN(c1ccc(C(=O)N[C@@H](CCCS(=O)(=O)c2nc[nH]n2)C(=O)O)cc1)[C@@H]1CCc2cc3nc(C)nc(O)c3cc21
2.1	C#CCN(c1ccc(C(=O)N[C@@H](CCC(=O)N[C@H](CCC(=O)O)c2nnn[nH]2)C(=O)O)cc1)[C@@H]1CCc2cc3nc(C)[nH]c(=O)c3cc21
